Results reported in the NIST ThermoML archive (doi:10.1016/j.fluid.2010.03.010).

Conditions: Liquid, Vibrating tube method

CCOS(=O)(=O)[O-].CCn1cc[n+](C)c1 [1-ethyl-3-methylimidazolium ethyl sulfate]
Conditions | mass density [kg/m3]
342.15 K, 101.33 kPa | 1208.29
343.15 K, 100 kPa | 1207.4
343.15 K, 101.33 kPa | 1207.63
343.15 K, 250 kPa | 1207.5
343.15 K, 500 kPa | 1207.6
343.15 K, 1010 kPa | 1207.8
343.15 K, 1990 kPa | 1208.3
343.15 K, 4990 kPa | 1209.6
343.15 K, 10010 kPa | 1211.9
343.15 K, 14990 kPa | 1214.1
343.15 K, 20010 kPa | 1216.3
343.15 K, 24990 kPa | 1218.3
343.15 K, 30000 kPa | 1220.4
343.15 K, 35010 kPa | 1222.4
343.15 K, 40000 kPa | 1224.5
343.15 K, 45000 kPa | 1226.4
343.15 K, 50000 kPa | 1228.4
343.15 K, 54990 kPa | 1230.3
343.15 K, 60000 kPa | 1232.2
344.15 K, 101.33 kPa | 1206.97
345.15 K, 101.33 kPa | 1206.32
346.15 K, 101.33 kPa | 1205.66
347.15 K, 101.33 kPa | 1205.01
348.15 K, 101.33 kPa | 1204.36
349.15 K, 101.33 kPa | 1203.7
350.15 K, 101.33 kPa | 1203.05
351.15 K, 101.33 kPa | 1202.4
352.15 K, 101.33 kPa | 1201.75
353.15 K, 100 kPa | 1200.9
353.15 K, 101.33 kPa | 1201.09
353.15 K, 250 kPa | 1200.9
353.15 K, 500 kPa | 1201
353.15 K, 1010 kPa | 1201.3
353.15 K, 2000 kPa | 1201.8
353.15 K, 4990 kPa | 1203.1
353.15 K, 10010 kPa | 1205.5
353.15 K, 15000 kPa | 1207.6
353.15 K, 20000 kPa | 1209.9
353.15 K, 24990 kPa | 1212
353.15 K, 30010 kPa | 1214.2
353.15 K, 34990 kPa | 1216.2
353.15 K, 40000 kPa | 1218.3
353.15 K, 45000 kPa | 1220.2
353.15 K, 50000 kPa | 1222.3
353.15 K, 54990 kPa | 1224.2
353.15 K, 60000 kPa | 1226.1
354.15 K, 101.33 kPa | 1200.44
355.15 K, 101.33 kPa | 1199.79
356.15 K, 101.33 kPa | 1199.14
357.15 K, 101.33 kPa | 1198.49
358.15 K, 101.33 kPa | 1197.84
359.15 K, 101.33 kPa | 1197.2
360.15 K, 101.33 kPa | 1196.55
361.15 K, 101.33 kPa | 1195.9
362.15 K, 101.33 kPa | 1195.26
363.15 K, 100 kPa | 1194.3
363.15 K, 101.33 kPa | 1194.61
363.15 K, 250 kPa | 1194.4
363.15 K, 500 kPa | 1194.5
363.15 K, 1000 kPa | 1194.7
363.15 K, 2000 kPa | 1195.2
363.15 K, 4990 kPa | 1196.6
363.15 K, 10010 kPa | 1199
363.15 K, 14990 kPa | 1201.3
363.15 K, 19990 kPa | 1203.6
363.15 K, 25000 kPa | 1205.7
363.15 K, 30000 kPa | 1207.9
363.15 K, 34990 kPa | 1210
363.15 K, 40000 kPa | 1212.2
363.15 K, 45000 kPa | 1214.2
363.15 K, 50000 kPa | 1216.2
363.15 K, 55000 kPa | 1218.2
363.15 K, 60000 kPa | 1220.2
373.15 K, 100 kPa | 1187.8
373.15 K, 250 kPa | 1187.9
373.15 K, 500 kPa | 1188
373.15 K, 1010 kPa | 1188.2
373.15 K, 2000 kPa | 1188.7
373.15 K, 4990 kPa | 1190.2
373.15 K, 10010 kPa | 1192.6
373.15 K, 14990 kPa | 1194.9
373.15 K, 20010 kPa | 1197.3
373.15 K, 25000 kPa | 1199.5
373.15 K, 30010 kPa | 1201.7
373.15 K, 34990 kPa | 1203.9
373.15 K, 40000 kPa | 1206.1
373.15 K, 45000 kPa | 1208.1
373.15 K, 50000 kPa | 1210.2
373.15 K, 54990 kPa | 1212.3
373.15 K, 60000 kPa | 1214.3
393.15 K, 100 kPa | 1174.8
393.15 K, 250 kPa | 1174.9
393.15 K, 500 kPa | 1175
393.15 K, 1010 kPa | 1175.3
393.15 K, 2000 kPa | 1175.8
393.15 K, 4990 kPa | 1177.3
393.15 K, 10000 kPa | 1179.9
393.15 K, 15000 kPa | 1182.3
393.15 K, 20010 kPa | 1184.8
393.15 K, 24990 kPa | 1187.1
393.15 K, 30010 kPa | 1189.5
393.15 K, 34990 kPa | 1191.7
393.15 K, 40000 kPa | 1194
393.15 K, 45010 kPa | 1196.2
393.15 K, 50000 kPa | 1198.4
393.15 K, 55000 kPa | 1200.5
393.15 K, 60000 kPa | 1202.6
413.15 K, 100 kPa | 1161.7
413.15 K, 250 kPa | 1161.8
413.15 K, 500 kPa | 1162
413.15 K, 1010 kPa | 1162.2
413.15 K, 2000 kPa | 1162.8
413.15 K, 4990 kPa | 1164.4
413.15 K, 10000 kPa | 1167.2
413.15 K, 14990 kPa | 1169.7
413.15 K, 20010 kPa | 1172.4
413.15 K, 24990 kPa | 1174.8
413.15 K, 30000 kPa | 1177.4
413.15 K, 34990 kPa | 1179.7
413.15 K, 40000 kPa | 1182.1
413.15 K, 45000 kPa | 1184.4
413.15 K, 50000 kPa | 1186.7
413.15 K, 54990 kPa | 1188.9
413.15 K, 60000 kPa | 1191.1
433.15 K, 100 kPa | 1148.6
433.15 K, 250 kPa | 1148.7
433.15 K, 500 kPa | 1148.8
433.15 K, 1010 kPa | 1149.1
433.15 K, 2000 kPa | 1149.7
433.15 K, 4990 kPa | 1151.4
433.15 K, 10010 kPa | 1154.4
433.15 K, 14990 kPa | 1157.1
433.15 K, 20010 kPa | 1159.9
433.15 K, 24990 kPa | 1162.5
433.15 K, 30010 kPa | 1165.2
433.15 K, 34990 kPa | 1167.6
433.15 K, 40000 kPa | 1170.2
433.15 K, 45010 kPa | 1172.6
433.15 K, 50000 kPa | 1175.1
433.15 K, 54990 kPa | 1177.4
433.15 K, 60000 kPa | 1179.7
